Measurements reported in paper PMC7067850, “Identification of highly potent and selective inhibitor, TIPTP, of the p22phox-Rubicon axis as a therapeutic agent for rheumatoid arthritis” (Scientific Reports, 2020).

What was measured:
[1] = system: collagen-induced arthritis; assay: Collagen-induced arthritis (CIA) mouse model; type: in vivo
Description: The collagen-induced arthritis mouse model was established as previously described. Briefly, male DBA/1 J mice (6 − 8-weeks-old) were obtained from Beijing Vital River Laboratory Animal Technology Co., Ltd. (Charles River Laboratories department in Beijing, China), and kept under specific pathogen-free conditions. Chick collagen type II (Chondrex, Redmond, Washington, USA) was dissolved in 0.05 M acetic acid to a concentration of 2 mg/mL and emulsified with a complete Freund’s adjuvant (2 mg/mL M. tuberculosis H37Ra, Chondrex). At the beginning of the experiments (day 0), the mice were immunized with a 0.1 mL emulsion containing 100 μg of collagen at the tail base with a glass syringe and 25-G needles and then administered a booster (on day 21) with the same preparation of collagen and incomplete Freund’s adjuvant (Chondrex).
Cell culture supernatants, mice sera and synovial fluid were analyzed for cytokine content using the BD OptEIA ELISA set (BD Pharmingen) for the detection of TNF-α, IL-6, IL-1β, and IL-18. All assays were performed as recommended by the manufacturer.
Intracellular ROS levels were measured by flow cytometry from cells cultured in serum-free medium and loaded with the redox-sensitive dye 2 µM dihydroethidium (DHE for O2^−; Calbiochem) or 10 µM 2′,7′-Dichlorofluorescin diacetate (DCFH-DA for H2O2; Calbiochem)[18],[19]. The cells were thoroughly and quickly washed with pulse spin and immediately acquired for analyses in FACSCalibur (BD Biosciences, San Jose, CA). The data were plotted using CellQuest software (BD Biosciences).
Figure 4 TIPTP protects mice from CIA mice. (a) Schematic of the CIA model treated with TIPTP (upper). FACS analysis for superoxide and hydrogen peroxide from synovial fluid containing synoviocytes from CIA (lower). (b) Representative H&E staining of the ankle joints of each group were determined at 4 wks of CIA (left). Clinical arthritis score and swelling of paws (right) from ten mice per group. Scale bars: 500 μm. Serum (c) and Synovial fluid (d) were harvested at 4 wks of CIA and analyzed for cytokines by ELISA. […]
Arthritis mice were evaluated for disease progression three times a week as follows ^1,2. Each limb was scored according to the severity of inflammation, where 0 : no evidence of redness or swelling, 1 : redness and slight swelling confined to the tarsal joints or ankle, 2 : redness and mild swelling extending from the ankle to the tarsal joints, 3 : redness and moderate swelling extending from the ankle to the metatarsal joints, and 4 : severe swelling encompassing the ankle, foot, and digits, or ankylosis of the limb. […]

BMDMs = assay: MTT assay for cell viability; type: cell-based, mouse; conditions: different concentrations and times (Fig. 3b)
Description: The mouse macrophage cell line RAW264.7 (ATCC TIB-71; American Type Culture Collection) and HEK293T (ATCC-11268) cells were maintained in DMEM (Invitrogen) containing 10% FBS (Invitrogen), sodium pyruvate, nonessential amino acids, penicillin G (100 IU/ml), and streptomycin (100 μg/ml). Transient transfections were performed with Lipofectamine 3000 (Invitrogen), or calcium phosphate (Clontech), according to the manufacturer’s instructions. Raw264.7 stable cell lines were generated using a standard selection protocol with 2 μg/ml of puromycin. Mouse primary bone marrow derived-macrophages (BMDMs) were isolated from C57BL/6 mice and cultured in DMEM for 3–5 days in the presence of 25 ng/ml recombinant macrophage colony stimulating factor (R&D Systems, 416-ML, Minneapolis, MN, USA), as described previously. Human adherent monocytes were prepared from PBMCs donated by healthy subjects, as described previously.
Figure 3 TIPTP robustly suppresses LPS/ATP-mediated Rubicon-p22phox interaction and ROS-mediated inflammation. (a) Structure of the TIPTP. (b) MTT assay for cell viability. BMDMs were incubated with TIPTP for the indicated times at the indicated TIPTP concentrations (upper). WCLs were used for IB with α22phox, αRubicon, or αActin (lower). […] Quantitative analysis of mean fluorescence intensities of ROS (lower). […] (f) Culture supernatants were harvested and analyzed for cytokines by ELISA. […]

## C[C@@H](Oc1cccc(-n2cc3c(n2)CCCC3)c1)C(=O)Nc1nnc(C(F)(F)F)s1 [TIPTP, (R)-2-(3-(4,5,6,7-tetrahydro-2H-indazol-2-yl)phenoxy)-N-(5-(trifluoromethyl)-1,3,4-thiadiazol-2-yl)propanamide]
[1]; CIA mice (Fig. 4b, Supplemental Fig. 6a)
  severity of RA (clinical parameters, paw thickness, histology) vs vehicle-treated CIA mice: markedly lower
[1]; CIA mice, 4 wks, ELISA (Fig. 4c,d)
  serum and synovial fluid concentrations of TNF-α, IL-6, IL-1β, and IL-18: significantly attenuated
[1]; CIA mice, dose-dependent (Fig. 4a)
  production of ROS by synovial tissues: significantly attenuated
[1]; synoviocytes from CIA mice, co-IP (Fig. 4e)
  binding of p22phox with Rubicon protein in synoviocytes: markedly decreased
BMDMs
  cell viability of BMDMs: did not induce any significant change
